Experimental data reported in ChEMBL document CHEMBL1201862, “PubChem BioAssay data set” (2004).
Active and inactive are the calls of the source.

Columns and labels:
[1] = NIH3T3 cell viability loss – ATP luminescence, mouse fibroblasts, counter-screen, dose response (AID 2010); assay type: functional, cell-based;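 further: cells exposed to compound for about 90 hours before reading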
[2] = biological target: Guanyl-specific ribonuclease T1 (Aspergillus oryzae (strain ATCC 42149 / RIB 40), UniProt P00651); assay: inhibition of ribonuclease T1 activity – biochemical, fluorescence polarization, 1536-well, counter-screen for TPT1 inhibitor project, dose response (AID 2167)
[3] = biological target: T1, Replicative DNA helicase DnaB (Mycobacterium tuberculosis, UniProt P9WMR3); assay: DnaB intein splicing inhibitors, dose response, biochemical, cell-free fluorescence (AID 449749); assay type: functional
T1 sequence (P9WMR3 whole entry): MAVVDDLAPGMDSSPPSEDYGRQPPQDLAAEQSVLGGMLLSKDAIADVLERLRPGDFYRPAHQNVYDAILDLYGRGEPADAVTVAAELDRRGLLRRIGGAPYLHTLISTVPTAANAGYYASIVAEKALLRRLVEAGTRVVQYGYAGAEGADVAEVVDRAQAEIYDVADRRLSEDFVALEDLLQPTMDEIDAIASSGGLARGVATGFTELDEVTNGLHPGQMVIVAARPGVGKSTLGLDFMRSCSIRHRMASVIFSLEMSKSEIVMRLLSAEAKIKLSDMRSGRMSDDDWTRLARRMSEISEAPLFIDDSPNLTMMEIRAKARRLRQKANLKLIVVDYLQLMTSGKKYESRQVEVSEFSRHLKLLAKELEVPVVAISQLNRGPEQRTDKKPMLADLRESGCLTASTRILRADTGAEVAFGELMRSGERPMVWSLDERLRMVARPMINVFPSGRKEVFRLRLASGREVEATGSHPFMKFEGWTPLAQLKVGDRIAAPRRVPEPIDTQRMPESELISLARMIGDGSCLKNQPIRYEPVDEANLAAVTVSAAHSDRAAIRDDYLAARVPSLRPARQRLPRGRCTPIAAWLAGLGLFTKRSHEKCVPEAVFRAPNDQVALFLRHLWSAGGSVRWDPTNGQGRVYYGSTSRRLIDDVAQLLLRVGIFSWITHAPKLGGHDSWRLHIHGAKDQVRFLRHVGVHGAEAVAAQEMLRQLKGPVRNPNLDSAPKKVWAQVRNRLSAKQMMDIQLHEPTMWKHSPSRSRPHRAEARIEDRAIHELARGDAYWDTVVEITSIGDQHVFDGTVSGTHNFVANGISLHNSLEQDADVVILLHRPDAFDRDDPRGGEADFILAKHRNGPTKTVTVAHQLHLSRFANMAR

[4] = IC50 of Artemis nuclease activity blockers – biochemical, fluorescence intensity, dose response (AID 720701); assay type: functional;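 further: Artemis endonuclease enzyme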
[5] = biological target: Likely tRNA 2'-phosphotransferase (Candida albicans (strain SC5314 / ATCC MYA-2876) (Yeast), UniProt Q5A7N4); assay: inhibition of Candida TPT1 enzyme activity – biochemical, fluorescence polarization, dose response (AID 2160)
[6] = biological target: T2, Protein RecA (Mycobacterium tuberculosis, UniProt P9WHJ3); assay: Fluorescence Cell-Free Homogeneous Dose Retest to Identify Inhibitors of RecA-Intein Splicing Activity. [Related pubchem assays (depositor defined):AID2097, AID2223, AID489010, AID492950]; assay type: functional
T2 sequence (P9WHJ3 whole entry): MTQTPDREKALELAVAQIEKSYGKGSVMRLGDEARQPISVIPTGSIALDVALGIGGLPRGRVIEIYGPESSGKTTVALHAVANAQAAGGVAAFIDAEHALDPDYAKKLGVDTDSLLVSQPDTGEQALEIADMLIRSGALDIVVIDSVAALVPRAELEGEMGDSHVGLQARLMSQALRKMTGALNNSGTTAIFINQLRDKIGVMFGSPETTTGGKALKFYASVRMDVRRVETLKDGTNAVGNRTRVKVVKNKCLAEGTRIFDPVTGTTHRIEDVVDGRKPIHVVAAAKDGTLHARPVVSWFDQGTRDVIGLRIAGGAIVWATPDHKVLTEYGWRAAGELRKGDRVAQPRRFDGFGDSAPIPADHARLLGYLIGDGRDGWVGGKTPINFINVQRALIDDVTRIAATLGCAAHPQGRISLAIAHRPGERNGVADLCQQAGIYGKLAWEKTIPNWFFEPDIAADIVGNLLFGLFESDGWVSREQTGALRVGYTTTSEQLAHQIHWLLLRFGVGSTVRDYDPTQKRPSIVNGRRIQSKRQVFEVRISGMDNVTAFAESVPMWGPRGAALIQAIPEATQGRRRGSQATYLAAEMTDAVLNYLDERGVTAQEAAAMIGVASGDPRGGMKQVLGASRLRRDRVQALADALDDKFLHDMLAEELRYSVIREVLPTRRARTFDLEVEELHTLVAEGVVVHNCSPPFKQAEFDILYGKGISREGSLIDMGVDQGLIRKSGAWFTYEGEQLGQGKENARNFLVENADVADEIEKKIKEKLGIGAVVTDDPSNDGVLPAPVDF

[7] = Trypanosoma cruzi growth suppression in host cells – NIH3T3 host cells, beta-gal luminescence, confirmation (AID 2044); assay type: functional, cell-based;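 further: intracellular parasites grown in NIH/3T3 mouse fibroblasts as host cells; luminescent beta-galactosidase reporter signal from transgenic T. cruzi replicating inside host cells; inhibitors lower the luminescence signal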
[8] = biological target: Eukaryotic translation initiation factor 4H (Homo sapiens, UniProt Q15056); assay: eIF4H binding inhibition – biochemical, uHTS, fluorescence polarization, translation initiation inhibitor project, primary screen (AID 2012)
[9] = biological target: Polyadenylate-binding protein 1 (Homo sapiens, UniProt P11940); assay: blockers of PABP interaction with poly(A) – biochemical, fluorescence polarization, […] (AID 2014)
[10] = microbe, parasite or virus in culture; assay type: functional; settings: Mycobacterium tuberculosis
[11] = biological target: Large T antigen (Simian virus 40, UniProt P03070); assay type: functional, Betapolyomavirus macacae;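 further: Confirmatory-stage PubChem screen for compounds that inhibit SV40 T antigen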
[12] = biological target: T3, Apoptotic protease-activating factor 1 (Homo sapiens, UniProt O14727); assay type: functional
T3 sequence (O14727 whole entry): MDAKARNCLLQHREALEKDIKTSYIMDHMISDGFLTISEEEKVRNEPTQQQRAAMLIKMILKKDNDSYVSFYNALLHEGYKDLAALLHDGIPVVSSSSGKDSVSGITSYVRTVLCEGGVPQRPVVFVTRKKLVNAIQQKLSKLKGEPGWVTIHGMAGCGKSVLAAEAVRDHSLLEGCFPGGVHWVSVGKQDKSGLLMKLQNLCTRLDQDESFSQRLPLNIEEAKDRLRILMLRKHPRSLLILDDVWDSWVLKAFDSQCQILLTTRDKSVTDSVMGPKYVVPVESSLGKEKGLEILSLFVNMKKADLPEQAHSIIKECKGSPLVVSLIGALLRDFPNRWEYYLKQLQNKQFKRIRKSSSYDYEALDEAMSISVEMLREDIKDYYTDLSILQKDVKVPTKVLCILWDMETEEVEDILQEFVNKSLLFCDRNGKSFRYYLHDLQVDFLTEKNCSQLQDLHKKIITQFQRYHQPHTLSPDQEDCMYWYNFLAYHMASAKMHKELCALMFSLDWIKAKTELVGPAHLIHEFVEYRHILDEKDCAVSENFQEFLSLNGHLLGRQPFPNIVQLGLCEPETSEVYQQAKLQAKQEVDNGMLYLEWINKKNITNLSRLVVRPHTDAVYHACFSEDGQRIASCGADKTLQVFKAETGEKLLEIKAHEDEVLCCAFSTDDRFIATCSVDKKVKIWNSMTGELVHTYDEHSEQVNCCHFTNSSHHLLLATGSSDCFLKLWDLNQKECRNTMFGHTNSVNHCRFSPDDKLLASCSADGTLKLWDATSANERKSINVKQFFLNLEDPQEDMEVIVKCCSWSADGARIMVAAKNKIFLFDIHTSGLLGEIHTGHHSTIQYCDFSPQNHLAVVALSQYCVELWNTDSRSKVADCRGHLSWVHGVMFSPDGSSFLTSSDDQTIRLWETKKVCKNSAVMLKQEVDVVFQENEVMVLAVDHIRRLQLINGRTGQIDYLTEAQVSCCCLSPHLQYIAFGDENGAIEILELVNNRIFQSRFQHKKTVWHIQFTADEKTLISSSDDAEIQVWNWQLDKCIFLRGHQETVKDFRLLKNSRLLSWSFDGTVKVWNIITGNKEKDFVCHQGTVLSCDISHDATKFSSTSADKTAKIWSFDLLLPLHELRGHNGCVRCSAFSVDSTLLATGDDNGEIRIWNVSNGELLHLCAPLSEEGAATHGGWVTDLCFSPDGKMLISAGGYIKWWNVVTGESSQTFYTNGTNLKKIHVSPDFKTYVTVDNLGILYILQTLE

[13] = biological target: T4, Hexokinase HKDC1 (Homo sapiens, UniProt Q2TB90); assay: inhibition of HKDC1 glucose phosphorylation – biochemical, W721R variant, dose response (AID 504729); assay type: functional
T4 sequence (Q2TB90 whole entry): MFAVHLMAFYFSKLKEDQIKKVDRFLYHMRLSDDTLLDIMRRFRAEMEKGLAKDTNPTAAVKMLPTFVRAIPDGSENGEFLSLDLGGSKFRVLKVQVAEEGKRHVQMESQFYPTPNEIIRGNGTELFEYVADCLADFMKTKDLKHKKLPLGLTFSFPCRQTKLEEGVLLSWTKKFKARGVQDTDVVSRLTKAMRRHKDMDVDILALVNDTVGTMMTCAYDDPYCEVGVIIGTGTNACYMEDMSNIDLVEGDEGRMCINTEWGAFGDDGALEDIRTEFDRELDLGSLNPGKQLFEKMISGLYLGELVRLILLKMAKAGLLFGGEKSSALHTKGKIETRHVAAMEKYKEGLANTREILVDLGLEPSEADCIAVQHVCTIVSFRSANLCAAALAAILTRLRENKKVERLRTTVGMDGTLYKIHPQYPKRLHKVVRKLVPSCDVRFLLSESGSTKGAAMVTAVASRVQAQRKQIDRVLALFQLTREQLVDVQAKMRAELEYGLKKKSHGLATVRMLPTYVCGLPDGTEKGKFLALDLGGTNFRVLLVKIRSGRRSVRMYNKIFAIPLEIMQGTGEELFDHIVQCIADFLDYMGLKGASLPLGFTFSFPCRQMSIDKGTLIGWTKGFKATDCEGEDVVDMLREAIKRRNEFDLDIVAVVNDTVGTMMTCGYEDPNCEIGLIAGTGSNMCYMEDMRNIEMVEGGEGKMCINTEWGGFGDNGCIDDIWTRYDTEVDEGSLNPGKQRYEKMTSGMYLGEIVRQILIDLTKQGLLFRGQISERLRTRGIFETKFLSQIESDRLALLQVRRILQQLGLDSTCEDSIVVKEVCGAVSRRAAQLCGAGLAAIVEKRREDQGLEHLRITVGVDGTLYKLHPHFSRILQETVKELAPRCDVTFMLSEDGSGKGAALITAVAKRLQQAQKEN

[14] = system: CHO; assay: CHO cell viability loss, potency – luminescence, cytotoxicity control for TLR9-MyD88 binding inhibitor project, dose response (AID 588339); assay type: functional, cell-based, hamster; settings: Cricetulus griseus;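 further: CHO cells stably coexpressing TLR9 and MyD88 fusions from primary screen; compound exposure lasted 48 hours before viability readout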
[15] = biological target: Cytochrome P450 2D6 (Homo sapiens, UniProt P10635);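 further: CYP2D6 member of a cytochrome P450 panel assay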
[16] = biological target: T5, Cysteine protease ATG4B (Homo sapiens, UniProt Q9Y4P1); assay type: functional;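 further: Fluorescence-based dose-response confirmation assay measuring inhibition of ATG4B activity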
T5 sequence (Q9Y4P1 whole entry): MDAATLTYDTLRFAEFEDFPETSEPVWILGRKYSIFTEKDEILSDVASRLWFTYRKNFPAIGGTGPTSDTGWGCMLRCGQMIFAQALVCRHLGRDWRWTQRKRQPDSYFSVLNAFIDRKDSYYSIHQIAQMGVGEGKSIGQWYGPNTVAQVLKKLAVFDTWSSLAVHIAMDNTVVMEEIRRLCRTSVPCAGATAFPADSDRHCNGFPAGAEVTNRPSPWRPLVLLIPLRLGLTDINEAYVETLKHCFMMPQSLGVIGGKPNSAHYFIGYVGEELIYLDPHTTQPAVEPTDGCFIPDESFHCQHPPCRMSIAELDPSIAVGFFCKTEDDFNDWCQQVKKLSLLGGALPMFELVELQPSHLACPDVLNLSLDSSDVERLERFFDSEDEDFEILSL

[17] = biological target: Phospholipase A2 (Homo sapiens, UniProt P04054); assay type: functional;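 further: confirmatory dose-response counterscreen on phospholipase A2, testing hits that came from an ultra-high-throughput screen for ATG4B inhibitors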
[18] = biological target: Beta Lactamase (Pseudomonas aeruginosa, UniProt Q932Y6); assay: BLA reporter interference, concentration series – BLA reporter cells, FRET fluorescence, artefact control for TLR9-MyD88 binding inhibitor project, dose response (AID 588341); assay type: cell-based;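 further: cell based assay in CHO-K1 cells stably expressing beta-lactamase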
[19] = viability loss in HeLa cells – cytotoxicity control for MgcRacGAP inhibitor project, dose response (AID 624300); assay type: functional
[20] = biological target: T6, Rac GTPase-activating protein 1 (Homo sapiens, UniProt Q9H0H5); assay: blockers of MgcRacGAP-driven Rac1 GTP hydrolysis – biochemical, ADP Hunter fluorescence, primary and confirmatory, confirmation (AID 624330); assay type: functional
T6 sequence (Q9H0H5 whole entry): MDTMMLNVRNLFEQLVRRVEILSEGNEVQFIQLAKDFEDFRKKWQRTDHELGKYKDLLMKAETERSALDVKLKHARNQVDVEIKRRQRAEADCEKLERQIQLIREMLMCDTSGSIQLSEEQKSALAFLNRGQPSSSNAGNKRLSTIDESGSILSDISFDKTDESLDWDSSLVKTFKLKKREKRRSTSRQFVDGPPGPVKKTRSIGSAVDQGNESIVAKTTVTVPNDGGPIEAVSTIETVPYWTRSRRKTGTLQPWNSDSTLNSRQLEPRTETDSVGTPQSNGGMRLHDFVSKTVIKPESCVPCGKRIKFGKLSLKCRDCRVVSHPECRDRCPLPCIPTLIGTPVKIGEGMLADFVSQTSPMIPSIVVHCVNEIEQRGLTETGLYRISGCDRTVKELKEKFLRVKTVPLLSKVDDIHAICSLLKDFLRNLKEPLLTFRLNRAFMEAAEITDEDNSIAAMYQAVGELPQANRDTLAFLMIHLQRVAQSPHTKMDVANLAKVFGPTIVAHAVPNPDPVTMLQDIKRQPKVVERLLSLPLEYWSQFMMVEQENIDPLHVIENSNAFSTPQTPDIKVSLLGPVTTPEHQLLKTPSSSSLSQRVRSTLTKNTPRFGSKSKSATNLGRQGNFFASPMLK

Chain of Phospholipase A2 (P04054 whole entry): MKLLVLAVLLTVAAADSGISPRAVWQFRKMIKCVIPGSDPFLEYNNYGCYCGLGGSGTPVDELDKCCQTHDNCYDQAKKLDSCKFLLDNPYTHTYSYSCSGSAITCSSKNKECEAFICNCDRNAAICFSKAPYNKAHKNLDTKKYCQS
Chain of Polyadenylate-binding protein 1 (P11940 whole entry): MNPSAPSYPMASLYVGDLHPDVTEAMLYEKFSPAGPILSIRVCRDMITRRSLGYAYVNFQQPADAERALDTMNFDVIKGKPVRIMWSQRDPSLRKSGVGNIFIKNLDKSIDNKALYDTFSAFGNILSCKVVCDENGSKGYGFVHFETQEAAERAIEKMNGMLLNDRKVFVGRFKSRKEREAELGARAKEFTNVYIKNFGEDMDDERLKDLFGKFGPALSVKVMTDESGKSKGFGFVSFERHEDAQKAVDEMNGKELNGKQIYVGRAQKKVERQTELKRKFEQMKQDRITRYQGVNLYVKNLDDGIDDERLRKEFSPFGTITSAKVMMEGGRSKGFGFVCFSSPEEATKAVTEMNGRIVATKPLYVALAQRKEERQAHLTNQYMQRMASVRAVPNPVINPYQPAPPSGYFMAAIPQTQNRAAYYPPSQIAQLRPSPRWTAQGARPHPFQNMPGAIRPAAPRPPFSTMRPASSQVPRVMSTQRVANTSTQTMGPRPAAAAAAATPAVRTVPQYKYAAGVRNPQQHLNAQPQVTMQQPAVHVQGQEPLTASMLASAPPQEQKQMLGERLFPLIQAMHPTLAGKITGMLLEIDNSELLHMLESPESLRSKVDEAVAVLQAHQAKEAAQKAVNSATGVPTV
Chain of Guanyl-specific ribonuclease T1 (P00651 whole entry): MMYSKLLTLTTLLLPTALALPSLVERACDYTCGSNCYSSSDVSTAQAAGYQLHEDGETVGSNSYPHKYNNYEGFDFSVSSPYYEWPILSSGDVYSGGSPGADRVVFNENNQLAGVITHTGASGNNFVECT
Chain of Cytochrome P450 2D6 (P10635 whole entry): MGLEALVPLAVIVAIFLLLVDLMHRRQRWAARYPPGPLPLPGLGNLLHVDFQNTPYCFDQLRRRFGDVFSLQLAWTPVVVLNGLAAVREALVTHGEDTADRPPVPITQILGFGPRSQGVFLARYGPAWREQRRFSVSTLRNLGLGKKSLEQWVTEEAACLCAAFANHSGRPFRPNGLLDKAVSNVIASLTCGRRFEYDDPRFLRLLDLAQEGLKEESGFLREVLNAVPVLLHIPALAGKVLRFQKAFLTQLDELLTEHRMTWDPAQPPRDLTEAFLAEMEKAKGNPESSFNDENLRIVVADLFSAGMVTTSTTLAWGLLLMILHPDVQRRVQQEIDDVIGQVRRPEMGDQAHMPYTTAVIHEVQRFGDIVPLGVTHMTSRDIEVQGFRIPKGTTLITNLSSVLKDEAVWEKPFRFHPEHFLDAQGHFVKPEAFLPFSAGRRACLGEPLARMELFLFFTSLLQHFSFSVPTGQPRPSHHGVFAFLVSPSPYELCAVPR
Chain of Beta Lactamase (Q932Y6 whole entry): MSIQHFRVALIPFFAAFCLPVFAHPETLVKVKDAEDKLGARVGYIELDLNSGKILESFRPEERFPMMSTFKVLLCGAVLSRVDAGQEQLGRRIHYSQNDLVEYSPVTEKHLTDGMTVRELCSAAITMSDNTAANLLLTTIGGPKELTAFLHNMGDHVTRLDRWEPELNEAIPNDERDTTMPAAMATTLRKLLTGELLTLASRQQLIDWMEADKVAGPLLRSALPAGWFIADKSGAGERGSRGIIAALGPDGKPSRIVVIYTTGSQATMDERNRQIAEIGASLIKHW
Chain of Likely tRNA 2'-phosphotransferase (Q5A7N4 whole entry): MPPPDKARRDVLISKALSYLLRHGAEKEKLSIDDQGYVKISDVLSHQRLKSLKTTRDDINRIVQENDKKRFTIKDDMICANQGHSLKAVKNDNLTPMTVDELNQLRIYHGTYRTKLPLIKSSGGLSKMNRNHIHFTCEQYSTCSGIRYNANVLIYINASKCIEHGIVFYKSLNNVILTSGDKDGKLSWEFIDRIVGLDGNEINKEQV
Chain of Large T antigen (P03070 whole entry): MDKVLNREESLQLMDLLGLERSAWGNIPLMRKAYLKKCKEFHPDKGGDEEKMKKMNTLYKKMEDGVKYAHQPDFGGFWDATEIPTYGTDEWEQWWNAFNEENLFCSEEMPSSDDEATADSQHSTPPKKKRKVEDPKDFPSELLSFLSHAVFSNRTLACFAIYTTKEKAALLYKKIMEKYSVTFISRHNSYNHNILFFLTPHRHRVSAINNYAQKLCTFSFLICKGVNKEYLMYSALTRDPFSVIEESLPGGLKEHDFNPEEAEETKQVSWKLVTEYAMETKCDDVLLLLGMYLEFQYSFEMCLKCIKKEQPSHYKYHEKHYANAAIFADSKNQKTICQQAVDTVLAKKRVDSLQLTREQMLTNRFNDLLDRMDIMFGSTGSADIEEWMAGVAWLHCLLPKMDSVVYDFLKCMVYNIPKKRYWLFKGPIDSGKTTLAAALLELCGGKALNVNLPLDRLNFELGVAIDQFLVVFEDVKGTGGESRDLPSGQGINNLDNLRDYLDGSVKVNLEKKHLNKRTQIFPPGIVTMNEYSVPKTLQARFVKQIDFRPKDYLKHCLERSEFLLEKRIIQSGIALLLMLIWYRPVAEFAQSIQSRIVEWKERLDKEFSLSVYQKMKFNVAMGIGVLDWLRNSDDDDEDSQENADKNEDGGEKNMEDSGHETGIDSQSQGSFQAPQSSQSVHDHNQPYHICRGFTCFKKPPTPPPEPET

With `Cc1ccc2nc(N/N=C\c3ccc([N+](=O)[O-])o3)nc(-c3ccccc3)c2c1` the EC50 [1] was 9.01 µM (active), the IC50 [2] was > 55.7 µM (not active) and the AC50 [3] was > 380 µM (inactive). The IC50 [4] was > 20 µM (inactive), the IC50 [5] was > 55.7 µM (not active) and the EC50 [6] was 208 µM (inconclusive). The EC50 [7] was 0.176 µM (active).
In the case of `O=C1C=C(NCc2ccc(Cl)cc2)CC(c2ccco2)C1` (stereo not given), the IC50 [8] is reported as 41.3 µM (active) and the IC50 [9] is reported as 64.6 µM (active).
With `O=C1C(SCCO)=C(SCCO)C(=O)c2ccccc21` the CC50 [10] was 30.1 µM (active), the IC50 [11] was 26.6 µM (active) and the IC50 [12] was 12.7 µM (active). The IC50 [13] was 3.15 µM (active), the IC50 [14] was 0.479 µM (active) and the AC50 [15] was 31.6 µM (inconclusive). For the same compound, the IC50 [16] was 12.8 µM (active), the IC50 [17] was 55.5 µM (inactive) and the IC50 [18] was 12.1 µM (inactive). For the same compound, the CC50 [19] was 24.5 µM (active) and the IC50 [20] was 32.5 µM (active).
